Test system: MMTV-PyMT tumor transplants
Experiment: Orthotopic transplant of MMTV-PyMT tumor pieces into wild-type FVBN or athymic nude Foxn1nu mice
Assay type: in vivo, mouse
Conditions: treated for 20 days
Experimental: Two transplant experiments were performed where tumors were extracted from MMTV-PyMT mice and 50-100 mm^3 pieces were inserted into the 4th mammary fat pad of either wild-type FVBN mice or athymic nude Foxn1nu mice. Five days after implant mice were randomly placed into treatment groups and treated as indicated.

`CC(=O)O[C@H]1C(=O)[C@@]2(C)[C@H]([C@H](OC(=O)c3ccccc3)[C@]3(O)C[C@H](OC(=O)[C@H](O)[C@@H](NC(=O)c4ccccc4)c4ccccc4)C(C)=C1C3(C)C)[C@]1(OC(C)=O)CO[C@@H]1C[C@@H]2O` [paclitaxel, 5β,20-epoxy-1,2α,4,7β,10β,13α-hexa-hydroxytax-11-en-9-one 4,10-diacetate 2-benzoate 13-ester with (2R,3S)—N-benzoyl-3-phenylisoserine, reference compound] was tested, and the “transplant growth in T cell deficient athymic nude (Foxn1nu) recipient mice” value was “efficacious”.

Reference: patent publication US20200268720A1, “METHODS OF USE OF A CLASS IIA HDAC INHIBITOR” (GlaxoSmithKline LLC, priority 2016, published 2020)
